# Activity calls are given as the source filed them. The calls are words filed in the database; no cut-off is given here.
# Legend:
# MCF7 = test: Antiproliferative activity against human MCF7 cells after 48 hrs by MTT assay; assay type: functional, cell-based; conditions: MCF7, 48 h
# A549 [1] = test: Antiproliferative activity against human A549 cells after 48 hrs by MTT assay; assay type: functional, cell-based; conditions: A549, 48 h
# HeLa = test: Antiproliferative activity against human HeLa cells after 48 hrs by MTT assay; assay type: functional, cell-based
# DU-145 = test: Antiproliferative activity against human DU145 cells after 48 hrs by MTT assay; assay type: functional, cell-based; conditions: DU-145, 48 h
# A549 [2] = test: Anticancer activity against human A549 cells assessed as decrease in viable cells at cytotoxic IC50 level after 48 hrs by phase contrast microscopic analysis; assay type: functional, cell-based
# A549 [3] = test: Induction of morphological change in human A549 cells assessed as cell detachment at cytotoxic IC50 level after 48 hrs by phase contrast microscopic analysis; assay type: functional, cell-based
# A549 [4] = test: Induction of morphological change in human A549 cells assessed as nucleus shrinkage at cytotoxic IC50 level after 48 hrs by phase contrast microscopic analysis; assay type: functional, cell-based
# A549 [5] = test: Inhibition of cell migration in human A549 cells at cytotoxic IC50 level after 24 to 48 hrs by wound healing assay; assay type: functional
# A549 [6] = test: Inhibition of cell migration in human A549 cells at cytotoxic IC50 level after 24 hrs by wound healing assay; assay type: functional
# A549 [7] = test: Inhibition of cell migration in human A549 cells at cytotoxic IC50 level after 48 hrs by wound healing assay; assay type: functional
# A549 [8] = test: Induction of cell cycle arrest in human A549 cells assessed as accumulation at G1 phase at 1 uM after 24 hrs by propidium iodide staining based flow cytometry (reference value: 72.27%); assay type: functional
# A549 [9] = test: Induction of cell cycle arrest in human A549 cells assessed as accumulation at G1 phase at 2 uM after 24 hrs by propidium iodide staining based flow cytometry (reference value: 72.27%); assay type: functional
# A549 [10] = test: Induction of cell cycle arrest in human A549 cells assessed as accumulation at S phase at 1 uM after 24 hrs by propidium iodide staining based flow cytometry (reference value: 4.96%); assay type: functional
# A549 [11] = test: Induction of cell cycle arrest in human A549 cells assessed as accumulation at S phase at 2 uM after 24 hrs by propidium iodide staining based flow cytometry (reference value: 4.96%); assay type: functional
# A549 [12] = test: Induction of cell cycle arrest in human A549 cells assessed as accumulation at G2/M phase at 1 uM after 24 hrs by propidium iodide staining based flow cytometry (reference value: 21.85%); assay type: functional
# A549 [13] = test: Induction of cell cycle arrest in human A549 cells assessed as accumulation at G2/M phase at 2 uM after 24 hrs by propidium iodide staining based flow cytometry (reference value: 21.85%); assay type: functional
# A549 [14] = test: Induction of apoptosis in human A549 cells assessed as fragmented nuclei at cytotoxic IC50 level after 24 hrs by […] staining based confocal fluorescence microscopic analysis; assay type: functional, cell-based
# A549 [15] = test: Induction of apoptosis in human A549 cells assessed as chromatin condensation at cytotoxic IC50 level after 24 hrs by […] staining based confocal fluorescence microscopic analysis; assay type: functional, cell-based
# A549 [16] = test: Induction of apoptosis in human A549 cells assessed as horseshoe shaped nuclei at cytotoxic IC50 level after 24 hrs by […] staining based confocal fluorescence microscopic analysis; assay type: functional, cell-based
# A549 [17] = test: Induction of apoptosis in human A549 cells assessed as extremely condensed chromatin at 0.5 uM after 24 hrs by acridine orange/ethidium bromide staining based fluorescence microscopic analysis; assay type: functional, cell-based
# A549 [18] = test: Induction of apoptosis in human A549 cells assessed as cell membrane blebbing at 0.5 uM after 24 hrs by acridine orange/ethidium bromide staining based fluorescence microscopic analysis; assay type: functional
# A549 [19] = test: Induction of apoptosis in human A549 cells assessed as destructive fragmentation of nuclei at 1 uM after 24 hrs by acridine orange/ethidium bromide staining based fluorescence microscopic analysis; assay type: functional, cell-based
# A549 [20] = test: Induction of apoptosis in human A549 cells assessed as irregular distribution of chromatin at 1 uM after 24 hrs by acridine orange/ethidium bromide staining based fluorescence microscopic analysis; assay type: functional, cell-based
# A549 [21] = test: Induction of apoptosis in human A549 cells assessed as extremely condensed chromatin at 2 uM after 24 hrs by acridine orange/ethidium bromide staining based fluorescence microscopic analysis; assay type: functional, cell-based
# A549 [22] = test: Induction of apoptosis in human A549 cells assessed as disruption of mitochondrial membrane potential at cytotoxic IC50 level after 24 hrs by rhodamine-123 staining based spectrofluorometry relative to control; assay type: functional
# A549 [23] = test: Induction of apoptosis in human A549 cells assessed as increase in intracellular reactive oxygen species level at cytotoxic IC50 level after 24 hrs by DCFH-DA staining based spectrofluorometry relative to control; assay type: functional
smiles,measurement,setting,value
CN1C(=O)C2(Cn3nncc3CO2)c2cc(Cl)ccc21 (configuration not stated),IC50,MCF7,35.5 µM
same,IC50,A549 [1],> 50 µM
same,IC50,HeLa,> 50 µM
same,IC50,DU-145,> 50 µM
N#Cc1ccc(CN2C(=O)C3(Cn4nncc4CO3)c3cc(Cl)ccc32)cc1 (configuration not stated),IC50,MCF7,10.2 µM
same,IC50,A549 [1],7.94 µM
same,IC50,HeLa,22.3 µM
same,IC50,DU-145,28 µM
O=C1N(Cc2ccccc2)c2ccc(F)cc2C12Cn1nncc1CO2 (configuration not stated),IC50,MCF7,35.9 µM
same,IC50,A549 [1],19.9 µM
same,IC50,HeLa,> 50 µM
same,IC50,DU-145,27.5 µM
COc1cccc2c1C(=O)c1c(O)c3c(c(O)c1C2=O)C[C@@](O)(C(=O)CO)C[C@@H]3O[C@H]1C[C@H](N)[C@H](O)[C@H](C)O1 [DOXORUBICIN],IC50,MCF7,1.05 µM
same,IC50,HeLa,1.26 µM
same,IC50,DU-145,1.91 µM
N#Cc1ccc(CN2C(=O)C3(Cn4nncc4CO3)c3ccccc32)cc1 (configuration not stated),IC50,MCF7,17.2 µM
same,IC50,A549 [1],12.6 µM
same,IC50,HeLa,21.4 µM
same,IC50,DU-145,20.4 µM
CCN1C(=O)C2(Cn3nncc3CO2)c2ccccc21 (configuration not stated),IC50,MCF7,8.87 µM
same,IC50,A549 [1],1.87 µM
same,IC50,HeLa,11.2 µM
same,IC50,DU-145,19.9 µM
same,Activity,A549 [2],Active
same,Activity,A549 [3],Active
same,Activity,A549 [4],Active
same,inhibition (INH),A549 [5],38.1%
same,inhibition (INH),A549 [6],54.9%
same,inhibition (INH),A549 [7],56.1%
same,Activity,A549 [8],60.21%
same,Activity,A549 [9],46.04%
same,Activity,A549 [10],15.63%
same,Activity,A549 [11],16.2%
same,Activity,A549 [12],19.77%
same,Activity,A549 [13],35.61%
same,Activity,A549 [14],Active
same,Activity,A549 [15],Active
same,Activity,A549 [16],Active
same,Activity,A549 [17],Active
same,Activity,A549 [18],Active
same,Activity,A549 [19],Active
same,Activity,A549 [20],Active
same,Activity,A549 [21],Active
same,Activity,A549 [22],48.2%
same,fold change (FC),A549 [23],2.6
CN1C(=O)C2(Cn3nncc3CO2)c2cc(F)ccc21 (configuration not stated),IC50,MCF7,> 50 µM
same,IC50,A549 [1],> 50 µM
same,IC50,HeLa,> 50 µM
same,IC50,DU-145,> 50 µM
CCN1C(=O)C2(Cn3nncc3CO2)c2cc(Cl)ccc21 (configuration not stated),IC50,MCF7,28.8 µM
same,IC50,A549 [1],15.8 µM
same,IC50,HeLa,> 50 µM
same,IC50,DU-145,23.4 µM
O=C1N(Cc2ccc(Br)cc2)c2ccc(Cl)cc2C12Cn1nncc1CO2 (configuration not stated),IC50,MCF7,31.6 µM
same,IC50,A549 [1],23.4 µM
same,IC50,HeLa,> 50 µM
same,IC50,DU-145,> 50 µM
Cc1ccc2c(c1)C1(Cn3nncc3CO1)C(=O)N2Cc1ccccc1 (configuration not stated),IC50,MCF7,19.9 µM
same,IC50,A549 [1],14.5 µM
same,IC50,HeLa,18.2 µM
same,IC50,DU-145,19.7 µM
O=C1N(Cc2ccccc2)c2ccc(Br)cc2C12Cn1nncc1CO2 (configuration not stated),IC50,MCF7,29.5 µM
same,IC50,A549 [1],14.8 µM
same,IC50,HeLa,31.5 µM
same,IC50,DU-145,49 µM
O=C1N(Cc2ccc(Br)cc2)c2ccc(Br)cc2C12Cn1nncc1CO2 (configuration not stated),IC50,MCF7,6.29 µM
same,IC50,A549 [1],4.26 µM
same,IC50,HeLa,12 µM
same,IC50,DU-145,8.14 µM
same,Activity,A549 [2],Active
same,Activity,A549 [3],Active
same,Activity,A549 [4],Active
same,inhibition (INH),A549 [5],38.1%
same,Activity,A549 [14],Active
same,Activity,A549 [15],Active
same,Activity,A549 [16],Active
same,Activity,A549 [22],Active
same,fold change (FC),A549 [23],2.3
CN1C(=O)C2(Cn3nncc3CO2)c2cc(Br)ccc21 (configuration not stated),IC50,MCF7,> 50 µM
same,IC50,A549 [1],> 50 µM
same,IC50,HeLa,> 50 µM
same,IC50,DU-145,> 50 µM
CN1C(=O)C2(Cn3nncc3CO2)c2ccccc21 (configuration not stated),IC50,MCF7,27.7 µM
same,IC50,A549 [1],20.1 µM
same,IC50,HeLa,48 µM
same,IC50,DU-145,> 50 µM
O=C1N(Cc2ccccc2)c2ccccc2C12Cn1nncc1CO2 (configuration not stated),IC50,MCF7,17.8 µM
same,IC50,A549 [1],10.5 µM
same,IC50,HeLa,> 50 µM
same,IC50,DU-145,> 50 µM
O=C1N(Cc2ccc(Br)cc2)c2ccccc2C12Cn1nncc1CO2 (configuration not stated),IC50,MCF7,13.5 µM
same,IC50,A549 [1],14.5 µM
same,IC50,HeLa,15.5 µM
same,IC50,DU-145,26.3 µM
O=C1N(Cc2ccccc2)c2ccc(Cl)cc2C12Cn1nncc1CO2 (configuration not stated),IC50,MCF7,16.5 µM
same,IC50,A549 [1],12.9 µM
same,IC50,HeLa,15.1 µM
same,IC50,DU-145,33.3 µM
CCN1C(=O)C2(Cn3nncc3CO2)c2cc(F)ccc21 (configuration not stated),IC50,MCF7,> 50 µM
same,IC50,A549 [1],> 50 µM
same,IC50,HeLa,> 50 µM
same,IC50,DU-145,> 50 µM
O=c1[nH]cc(F)c(=O)[nH]1 [FLUOROURACIL],IC50,A549 [1],7.24 µM
same,IC50,HeLa,8.32 µM
same,IC50,DU-145,6.07 µM
CCN1C(=O)C2(Cn3nncc3CO2)c2cc(Br)ccc21 (configuration not stated),IC50,MCF7,> 50 µM
same,IC50,A549 [1],> 50 µM
same,IC50,HeLa,> 50 µM
same,IC50,DU-145,> 50 µM
O=C1N(Cc2ccc(Br)cc2)c2ccc(F)cc2C12Cn1nncc1CO2 (configuration not stated),IC50,MCF7,8.31 µM
same,IC50,A549 [1],4.36 µM
same,IC50,HeLa,14.6 µM
same,IC50,DU-145,37.1 µM
Cc1ccc2c(c1)C1(Cn3nncc3CO1)C(=O)N2C (configuration not stated),IC50,MCF7,9.66 µM
same,IC50,A549 [1],7.41 µM
same,IC50,HeLa,10.2 µM
same,IC50,DU-145,24 µM
